What all share (assay): relative cell number vs DMSO control (72 h) (% of DMSO); higher = less growth inhibition (more cells)
What all share (conditions): sgRNA knockout: sgNT

For one assay, the system named is HCC-38. The protocol:
(§1)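 QMAP-Seq: a pool of 5 breast cancer cell lines (ZR-75-1, SKBR3, HCC-38, MDA-MB-231, BT-20), each carrying 12 doxycycline-inducible Cas9 sgRNA perturbations (11 knockouts plus non-targeting sgNT), was treated with compounds for 72 h at four 10-fold doses (10 nM-10 uM or 1 nM-1 uM range). Barcodes were amplified and sequenced, and cell number was interpolated from 293T spike-in standard curves. The result is expressed as % of the median of DMSO wells. Two biological replicates.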

The next assay concerns SKBR3. As to the method:
as §1

The test system of a further assay is ZR-75-1. The protocol: as §1
In a further assay the test system is MDA-MB-231. As to the method: as §1
The subject of another assay is BT-20. As to the method: as §1

Our source for the relative cell number values is the supplement of paper PMC7661543.

Structures are written as SMILES. ± gives the standard deviation of the averaged measurements.

Consider `CC(C)[C@]12O[C@H]1[C@@H]1O[C@]13[C@]1(O[C@H]1C[C@H]1C4=C(CC[C@@]13C)C(=O)OC4)[C@@H]2O` [Triptolide], for which the relative cell number in the assay on HCC-38 (1 nM) was 97.9 ± 20; with HCC-38 (10 nM) it was 66 ± 0.14; in the assay on HCC-38 (100 nM) it was 23.4 ± 5.6; in the assay on HCC-38 (1000 nM), 20.5 ± 2.7; in the assay on SKBR3 (1 nM), 83.4 ± 9; in the assay on SKBR3 (10 nM), 54.6 ± 19. Further, the relative cell number with SKBR3 (100 nM) stood at 12.4 ± 9; with SKBR3 (1000 nM) it was 8.93 ± 1.3; in the assay with ZR-75-1 (1 nM) it was 71.2 ± 23; with ZR-75-1 (10 nM) it was 78 ± 18; in the assay with ZR-75-1 (100 nM), 11.3 ± 8.5; in the assay with ZR-75-1 (1000 nM) it was 7.98 ± 1.1. The relative cell number in the assay with MDA-MB-231 (1 nM) was 86.6 ± 8.6; in the assay on MDA-MB-231 (10 nM), 44 ± 14; with MDA-MB-231 (100 nM) it was 16.5 ± 7.3; in the assay on MDA-MB-231 (1000 nM), 13.7 ± 4.4; with BT-20 (1 nM), 93.1 ± 20; in the assay with BT-20 (10 nM), 94.44 ± 0.19. Moreover, the values for the relative cell number in the assay on BT-20 (100 nM) and with BT-20 (1000 nM) were 39.9 ± 12 and 20.8 ± 7.7, respectively.
As for `CN1CCc2c(c3ccccc3n2Cc2ccc(C(=O)NO)cc2)C1` [TubastatinA], the relative cell number with HCC-38 (10 nM) was found to be 122 ± 20; with HCC-38 (100 nM), 88.7 ± 16; with HCC-38 (1000 nM), 114 ± 8.2; with HCC-38 (10000 nM), 66 ± 2.6; in the assay on SKBR3 (10 nM), 104 ± 5.4; in the assay on SKBR3 (100 nM), 59.2 ± 14. The relative cell number with SKBR3 (1000 nM) was 86.4 ± 15; in the assay on SKBR3 (10000 nM), 25.7 ± 14; in the assay on ZR-75-1 (10 nM), 80 ± 12; in the assay on ZR-75-1 (100 nM), 74 ± 43; in the assay on ZR-75-1 (1000 nM) it was 93.1 ± 40; with ZR-75-1 (10000 nM) it was 40.4 ± 1.6. Also, the relative cell number came to 81.3 ± 19 in the assay with MDA-MB-231 (10 nM); 95.1 ± 14 in the assay on MDA-MB-231 (100 nM); 138 ± 27 in the assay with MDA-MB-231 (1000 nM); 50.6 ± 17 with MDA-MB-231 (10000 nM); 98.7 ± 12 in the assay with BT-20 (10 nM); 97.3 ± 11 in the assay with BT-20 (100 nM). The relative cell number is 116.9 ± 0.46 in the assay on BT-20 (1000 nM) and 81.4 ± 33 in the assay with BT-20 (10000 nM).
Consider `Cc1onc(-c2ccccc2)c1-c1ccc(S(N)(=O)=O)cc1` [Valdecoxib], for which the relative cell number was determined as 111 ± 12 in the assay on HCC-38 (10 nM); 91.8 ± 8.2 in the assay on HCC-38 (100 nM); 99.8 ± 13 with HCC-38 (1000 nM); 98.4 ± 16 in the assay with HCC-38 (10000 nM); 76.8 ± 16 in the assay on SKBR3 (10 nM); 86.5 ± 37 with SKBR3 (100 nM). Besides, the relative cell number with SKBR3 (1000 nM) was 88.5 ± 38; with SKBR3 (10000 nM) it was 124 ± 34; in the assay on ZR-75-1 (10 nM) it was 95.3 ± 73; with ZR-75-1 (100 nM), 76.8 ± 16; in the assay with ZR-75-1 (1000 nM), 102 ± 37; in the assay on ZR-75-1 (10000 nM) it was 112 ± 1.4. Also, the relative cell number in the assay with MDA-MB-231 (10 nM) was 100 ± 22; in the assay with MDA-MB-231 (100 nM), 113 ± 13; in the assay with MDA-MB-231 (1000 nM) it was 87.1 ± 4.7; with MDA-MB-231 (10000 nM), 82.6 ± 1.5; with BT-20 (10 nM), 101 ± 5.5; with BT-20 (100 nM), 107 ± 17. In addition, the figures for the relative cell number with BT-20 (1000 nM) and in the assay on BT-20 (10000 nM) were 102 ± 21 and 99.62 ± 0.51, respectively.
Consider `C[C@]1(c2nc3c(C(N)=O)cccc3[nH]2)CCCN1` [Veliparib], for which the relative cell number came to 106 ± 11 with HCC-38 (10 nM); 104 ± 4.2 in the assay on HCC-38 (100 nM); 107 ± 18 with HCC-38 (1000 nM); 89.6 ± 4.9 with HCC-38 (10000 nM); 107 ± 26 with SKBR3 (10 nM); 104 ± 11 in the assay with SKBR3 (100 nM). For the same compound, the relative cell number in the assay on SKBR3 (1000 nM) was found to be 97.2 ± 27; with SKBR3 (10000 nM), 72.7 ± 38; in the assay on ZR-75-1 (10 nM) it was 88.9 ± 56; in the assay with ZR-75-1 (100 nM) it was 96.9 ± 12; with ZR-75-1 (1000 nM), 97.1 ± 24; with ZR-75-1 (10000 nM), 51.4 ± 4.1. Moreover, the relative cell number worked out at 135 ± 51 with MDA-MB-231 (10 nM); 144 ± 30 with MDA-MB-231 (100 nM); 148 ± 33 in the assay on MDA-MB-231 (1000 nM); 97.2 ± 8.6 in the assay on MDA-MB-231 (10000 nM); 109 ± 41 in the assay on BT-20 (10 nM); 116 ± 15 in the assay on BT-20 (100 nM). The relative cell number stood at 118 ± 38 in the assay on BT-20 (1000 nM) and 91.9 ± 25 in the assay on BT-20 (10000 nM).
As to `CC[C@]1(O)C[C@H]2CN(CCc3c([nH]c4ccccc34)[C@@](C(=O)OC)(c3cc4c(cc3OC)N(C=O)[C@H]3[C@@](O)(C(=O)OC)[C@H](OC(C)=O)[C@]5(CC)C=CCN6CC[C@]43[C@@H]65)C2)C1` [Vincristine], the relative cell number was 23.2 ± 4 in the assay with HCC-38 (10 nM); 22.5 ± 2.4 in the assay on HCC-38 (100 nM); 21.8 ± 2.9 in the assay with HCC-38 (1000 nM); 21.1 ± 1.5 with HCC-38 (10000 nM); 5.25 ± 0.24 in the assay with SKBR3 (10 nM); 3.5 ± 2.5 in the assay with SKBR3 (100 nM). For the same compound, the relative cell number in the assay on SKBR3 (1000 nM) is 8.88 ± 0.92; with SKBR3 (10000 nM), 6.97 ± 4.4; in the assay with ZR-75-1 (10 nM) it was 36.6 ± 5.9; in the assay with ZR-75-1 (100 nM) it was 22.3 ± 1.7; in the assay on ZR-75-1 (1000 nM) it was 9.69 ± 0.85; with ZR-75-1 (10000 nM), 17.1 ± 4.5. For the same compound, the relative cell number with MDA-MB-231 (10 nM) is 30.7 ± 3.3; in the assay with MDA-MB-231 (100 nM) it was 14.4 ± 2.7; in the assay with MDA-MB-231 (1000 nM) it was 9.81 ± 3.5; with MDA-MB-231 (10000 nM) it was 8.55 ± 3.1; in the assay with BT-20 (10 nM), 34.7 ± 4.6; in the assay on BT-20 (100 nM) it was 22.5 ± 6.4. In addition, the relative cell number with BT-20 (1000 nM) amounted to 28.17 ± 0.087; in the assay on BT-20 (10000 nM) it was 34.5 ± 1.1.
`CCC[C@H](NC(=O)/C(C#N)=C/c1cccc(Br)n1)c1ccccc1` [WP1130]: the relative cell number in the assay with HCC-38 (10 nM) worked out at 92.9 ± 2.6; in the assay on HCC-38 (100 nM) it was 103 ± 6.8; in the assay with HCC-38 (1000 nM), 83.8 ± 11; in the assay with HCC-38 (10000 nM) it was 6.78 ± 2; in the assay with SKBR3 (10 nM) it was 84 ± 36; in the assay with SKBR3 (100 nM), 51.2 ± 6.4. Further, the relative cell number in the assay on SKBR3 (1000 nM) was found to be 111 ± 7.9; with SKBR3 (10000 nM), 8.93 ± 1.9; in the assay on ZR-75-1 (10 nM), 96.9 ± 44; with ZR-75-1 (100 nM), 59.7 ± 4.9; with ZR-75-1 (1000 nM) it was 92.2 ± 22; with ZR-75-1 (10000 nM) it was 6.81 ± 2.8. For the same compound, the relative cell number with MDA-MB-231 (10 nM) came out at 100 ± 26; in the assay on MDA-MB-231 (100 nM), 87.3 ± 10; in the assay with MDA-MB-231 (1000 nM) it was 116 ± 47; in the assay with MDA-MB-231 (10000 nM), 11.7 ± 3.7; with BT-20 (10 nM) it was 101 ± 53; in the assay with BT-20 (100 nM) it was 78.7 ± 6.8. The relative cell number in the assay with BT-20 (1000 nM) was 100 ± 7; in the assay with BT-20 (10000 nM), 8.98 ± 1.4.
